Assay results from US10966978B2, “Dose and regimen for HDM2-p53 interaction inhibitors” (Novartis AG, priority 2016, dated 2021).
Read-outs that look alike come from different tables or passages of the source.

Tested on: patients with advanced TP53 wild-type (WT) leukemias

Question: Which results are given for `COc1ncc(-c2nc3c(n2C(C)C)[C@H](c2ccc(Cl)cc2)N(c2cc(Cl)cn(C)c2=O)C3=O)c(OC)n1` [HDM201, (S)-5-(5-Chloro-1-methyl-2-oxo-1,2-dihydro-pyridin-3-yl)-6-(4-chloro-phenyl)-2-(2,4-dimethoxy-pyrimidin-5-yl)-1-isopropyl-5,6-dihydro-1H-pyrrolo[3,4-d]imidazol-4-one]?
Answer: AE: Haemoglobin Decreased (Regimen 2A N = 7, Grade 3/4): 0 n (%); AE: Headache (Regimen 2A N = 7, Grade 3/4): 0 n (%); AE: Hyperbilirubinaemia (Regimen 2A N = 7, Grade 3/4): 0 n (%); AE: Hyperglycaemia (Regimen 2A N = 7, Grade 3/4): 0 n (%); AE: Hyperkalaemia (Regimen 2A N = 7, Grade 3/4): 0 n (%); AE: Hyperphosphataemia (Regimen 2A N = 7, Grade 3/4): 0 n (%); AE: Hyperuricaemia (Regimen 2A N = 7, Grade 3/4): 0 n (%); AE: Hypoalbuminaemia (Regimen 2A N = 7, Grade 3/4): 0 n (%); AE: Hypocalcaemia (Regimen 2A N = 7, Grade 3/4): 0 n (%); AE: Hypokalaemia (Regimen 2A N = 7, Grade 3/4): 0 n (%); AE: Hypomagnesaemia (Regimen 2A N = 7, Grade 3/4): 0 n (%); AE: Hyponatraemia (Regimen 2A N = 7, Grade 3/4): 0 n (%); AE: Hypophosphataemia (Regimen 2A N = 7, Grade 3/4): 0 n (%); AE: Hypotension (Regimen 2A N = 7, Grade 3/4): 0 n (%); AE: Infection (Regimen 2A N = 7, Grade 3/4): 0 n (%); AE: Infective Glossitis (Regimen 2A N = 7, Grade 3/4): 0 n (%); AE: Iron Overload (Regimen 2A N = 7, Grade 3/4): 0 n (%); AE: Leukopenia (Regimen 2A N = 7, Grade 3/4): 0 n (%); AE: Lip Oedema (Regimen 2A N = 7, Grade 3/4): 0 n (%); AE: Lipase Increased (Regimen 2A N = 7, Grade 3/4): 0 n (%); AE: Macular Oedema (Regimen 2A N = 7, Grade 3/4): 0 n (%); AE: Malaise (Regimen 2A N = 7, Grade 3/4): 0 n (%); AE: Mouth Haemorrhage (Regimen 2A N = 7, Grade 3/4): 0 n (%); AE: Nausea (Regimen 2A N = 7, Grade 3/4): 0 n (%); AE: Neutropenia/Neutrophil Count Decreased (Regimen 2A N = 7, Grade 3/4): 1 (14.3) n (%); AE: Oedema (Regimen 2A N = 7, Grade 3/4): 0 n (%); AE: Oedema Peripheral (Regimen 2A N = 7, Grade 3/4): 0 n (%); AE: Oral Disorder (Regimen 2A N = 7, Grade 3/4): 0 n (%); AE: Pain In Extremity (Regimen 2A N = 7, Grade 3/4): 0 n (%); AE: Pancytopenia (Regimen 2A N = 7, Grade 3/4): 0 n (%); AE: Pneumonia (Regimen 2A N = 7, Grade 3/4): 0 n (%); AE: Pollakiuria (Regimen 2A N = 7, Grade 3/4): 0 n (%); AE: Pyrexia (Regimen 2A N = 7, Grade 3/4): 0 n (%); AE: Rash (Regimen 2A N = 7, Grade 3/4): 0 n (%); AE: Rash Erythematous (Regimen 2A N = 7, Grade 3/4): 0 n (%); AE: Rash Papular (Regimen 2A N = 7, Grade 3/4): 0 n (%); AE: Rectal Haemorrhage (Regimen 2A N = 7, Grade 3/4): 0 n (%); AE: Renal Failure (Regimen 2A N = 7, Grade 3/4): 0 n (%); AE: Skin Exfoliation (Regimen 2A N = 7, Grade 3/4): 0 n (%); AE: Stomatitis (Regimen 2A N = 7, Grade 3/4): 0 n (%); AE: Subarachnoid Haemorrhage (Regimen 2A N = 7, Grade 3/4): 0 n (%); AE: Thrombocytopenia/Platelet Count Decreased (Regimen 2A N = 7, Grade 3/4): 2 (28.6) n (%); AE: Total (Regimen 2A N = 7, Grade 3/4): 3 (42.9) n (%); AE: Tumour Lysis Syndrome (Regimen 2A N = 7, Grade 3/4): 1 (14.3) n (%); AE: Vomiting (Regimen 2A N = 7, Grade 3/4): 0 n (%); AE: Weight Decreased (Regimen 2A N = 7, Grade 3/4): 0 n (%); AE: White Blood Cell Count Decreased (Regimen 2A N = 7, Grade 3/4): 1 (14.3) n (%); AE: Abdominal Discomfort (Regimen 2C N = 8, All Grades): 0 n (%); AE: Abdominal Pain (Regimen 2C N = 8, All Grades): 0 n (%); AE: Abdominal Pain Upper (Regimen 2C N = 8, All Grades): 0 n (%); AE: Amylase Increased (Regimen 2C N = 8, All Grades): 0 n (%); AE: Anaemia (Regimen 2C N = 8, All Grades): 5 (62.5) n (%); AE: Arthralgia (Regimen 2C N = 8, All Grades): 0 n (%); AE: Asthenia (Regimen 2C N = 8, All Grades): 2 (25.0) n (%); AE: Atrial Fibrillation (Regimen 2C N = 8, All Grades): 0 n (%); AE: Atypical Pneumonia (Regimen 2C N = 8, All Grades): 0 n (%); AE: Balanitis Candida (Regimen 2C N = 8, All Grades): 0 n (%); AE: Blood Alkaline Phosphatase Increased (Regimen 2C N = 8, All Grades): 0 n (%); AE: Blood Bilirubin Increased (Regimen 2C N = 8, All Grades): 0 n (%); AE: Blood Creatinine Increased (Regimen 2C N = 8, All Grades): 1 (12.5) n (%); AE: Blood Phosphorus Increased (Regimen 2C N = 8, All Grades): 0 n (%); AE: Blood Uric Acid Increased (Regimen 2C N = 8, All Grades): 0 n (%); AE: Bone Marrow Failure (Regimen 2C N = 8, All Grades): 0 n (%); AE: C-Reactive Protein Increased (Regimen 2C N = 8, All Grades): 0 n (%); AE: Cardiac Failure (Regimen 2C N = 8, All Grades): 0 n (%); AE: Cellulitis (Regimen 2C N = 8, All Grades): 0 n (%); AE: Chronic Graft Versus Host Disease (Regimen 2C N = 8, All Grades): 0 n (%); AE: Conjunctival Haemorrhage (Regimen 2C N = 8, All Grades): 0 n (%); AE: Constipation (Regimen 2C N = 8, All Grades): 1 (12.5) n (%); AE: Cough (Regimen 2C N = 8, All Grades): 0 n (%); AE: Cystitis Viral (Regimen 2C N = 8, All Grades): 0 n (%); AE: Cytomegalovirus Infection (Regimen 2C N = 8, All Grades): 0 n (%); AE: Decreased Appetite (Regimen 2C N = 8, All Grades): 4 (50.0) n (%); AE: Diarrhoea (Regimen 2C N = 8, All Grades): 2 (25.0) n (%); AE: Dyspepsia (Regimen 2C N = 8, All Grades): 0 n (%); AE: Dyspnoea (Regimen 2C N = 8, All Grades): 0 n (%); AE: Epistaxis (Regimen 2C N = 8, All Grades): 1 (12.5) n (%); AE: Fatigue (Regimen 2C N = 8, All Grades): 2 (25.0) n (%); AE: Febrile Neutropenia (Regimen 2C N = 8, All Grades): 3 (37.5) n (%); AE: Gamma-Glutamyltransferase Increased (Regimen 2C N = 8, All Grades): 0 n (%); AE: General Physical Health Deterioration (Regimen 2C N = 8, All Grades): 0 n (%); AE: Gingival Bleeding (Regimen 2C N = 8, All Grades): 0 n (%); AE: Graft Versus Host Disease (Regimen 2C N = 8, All Grades): 0 n (%); AE: Haemoglobin Decreased (Regimen 2C N = 8, All Grades): 0 n (%); AE: Headache (Regimen 2C N = 8, All Grades): 0 n (%); AE: Hyperbilirubinaemia (Regimen 2C N = 8, All Grades): 0 n (%); AE: Hyperglycaemia (Regimen 2C N = 8, All Grades): 0 n (%); AE: Hyperkalaemia (Regimen 2C N = 8, All Grades): 0 n (%); AE: Hyperphosphataemia (Regimen 2C N = 8, All Grades): 1 (12.5) n (%); AE: Hypoalbuminaemia (Regimen 2C N = 8, All Grades): 0 n (%); AE: Hypocalcaemia (Regimen 2C N = 8, All Grades): 0 n (%); AE: Hypokalaemia (Regimen 2C N = 8, All Grades): 0 n (%); AE: Hypomagnesaemia (Regimen 2C N = 8, All Grades): 0 n (%); AE: Hyponatraemia (Regimen 2C N = 8, All Grades): 0 n (%); AE: Hypophosphataemia (Regimen 2C N = 8, All Grades): 0 n (%); AE: Hypotension (Regimen 2C N = 8, All Grades): 0 n (%); AE: Infection (Regimen 2C N = 8, All Grades): 0 n (%); AE: Infective Glossitis (Regimen 2C N = 8, All Grades): 1 (12.5) n (%); AE: Iron Overload (Regimen 2C N = 8, All Grades): 0 n (%); AE: Leukopenia (Regimen 2C N = 8, All Grades): 0 n (%); AE: Lip Oedema (Regimen 2C N = 8, All Grades): 0 n (%); AE: Lipase Increased (Regimen 2C N = 8, All Grades): 0 n (%); AE: Macular Oedema (Regimen 2C N = 8, All Grades): 0 n (%); AE: Malaise (Regimen 2C N = 8, All Grades): 0 n (%); AE: Mouth Haemorrhage (Regimen 2C N = 8, All Grades): 0 n (%)
